# Laboratory results: PubChem BioAssay (NCI)
#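 Compound exposure: 48 hours, 5 concentrations, 96-well plates. At the GI50, growth is halved. TGI denotes the concentration required for complete inhibition of growth.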
# How the values were obtained:
# Experiment in all cases: NCI tumour cell line growth inhibition, 48 h
# NCI-H522 lung = system: NCI-H522 lung
# MOLT-4 leukemia = system: MOLT-4 leukemia
# SF-268 CNS = system: SF-268 CNS
# NCI-H23 lung = system: NCI-H23 lung
# CCRF-CEM leukemia = system: CCRF-CEM leukemia
# HL-60(TB) leukemia = system: HL-60(TB) leukemia
# SNB-19 CNS = system: SNB-19 CNS
compound,measurement,setting,value
O=c1cc(-c2ccc3c(c2)OCCO3)oc2cc(Cl)ccc12,GI50,NCI-H522 lung,2.97 µM
same,TGI,NCI-H522 lung,> 100 µM
same,GI50,MOLT-4 leukemia,> 100 µM
same,TGI,MOLT-4 leukemia,> 100 µM
same,GI50,SF-268 CNS,3.37 µM
same,TGI,SF-268 CNS,> 100 µM
same,GI50,NCI-H23 lung,5.67 µM
same,TGI,NCI-H23 lung,> 100 µM
same,GI50,CCRF-CEM leukemia,> 100 µM
same,TGI,CCRF-CEM leukemia,> 100 µM
same,GI50,HL-60(TB) leukemia,> 100 µM
same,TGI,HL-60(TB) leukemia,> 100 µM
same,GI50,SNB-19 CNS,3.62 µM
same,TGI,SNB-19 CNS,> 100 µM
